Measurements as given in the supplement of paper PMC10307832.

How the values were obtained:
Test in all cases: relative viability (nuclei count vs DMSO), 5 days (fraction); higher = more cells survive
OSI-027 + Phenformin = compound: COc1cccc2cc(-c3nc([C@H]4CC[C@H](C(=O)O)CC4)n4ncnc(N)c34)[nH]c12 [OSI-027] + N=C(N)NC(=N)NCCc1ccccc1 [Phenformin] (partner 250 µM)
Method in brief: (§1)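 One day after seeding in 1536-well plates, lung cancer cell lines were dosed by pin tool. Dosing was either single-drug or a fixed anchor-drug dose plus five library-drug doses (not always all listed) in √10 steps. After 5 days, nuclei were stained in one fix-and-stain step and counted on 4× images, and relative viability is the nuclei count of treated wells over that of vehicle wells, given as the median of duplicate plates.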

Alpelisib + Luminespib = compound: Cc1nc(NC(=O)N2CCC[C@H]2C(N)=O)sc1-c1ccnc(C(C)(C)C(F)(F)F)c1 [Alpelisib] + CCNC(=O)c1noc(-c2cc(C(C)C)c(O)cc2O)c1-c1ccc(CN2CCOCC2)cc1 [Luminespib] (partner 0.01 µM)
Method in brief: as §1

Vemurafenib + Trametinib = compound: CCCS(=O)(=O)Nc1ccc(F)c(C(=O)c2c[nH]c3ncc(-c4ccc(Cl)cc4)cc23)c1F [Vemurafenib] + CC(=O)Nc1cccc(-n2c(=O)n(C3CC3)c(=O)c3c(Nc4ccc(I)cc4F)n(C)c(=O)c(C)c32)c1 [Trametinib] (partner 0.02 µM)
Method in brief: as §1

Alpelisib + Pemetrexed = compound: Cc1nc(NC(=O)N2CCC[C@H]2C(N)=O)sc1-c1ccnc(C(C)(C)C(F)(F)F)c1 [Alpelisib] + Nc1nc2[nH]cc(CCc3ccc(C(=O)N[C@@H](CCC(=O)O)C(=O)O)cc3)c2c(=O)[nH]1 [Pemetrexed] (partner 0.2 µM)
Method in brief: as §1

| Cell Line | relative viability (OSI-027 + Phenformin; first compound 0.01 µM) | relative viability (OSI-027 + Phenformin; first compound 0.03162 µM) | relative viability (OSI-027 + Phenformin; first compound 0.1 µM) | relative viability (OSI-027 + Phenformin; first compound 0.3162 µM) | relative viability (OSI-027 + Phenformin; first compound 1 µM) | relative viability (Alpelisib + Luminespib; first compound 0.04 µM) | relative viability (Alpelisib + Luminespib; first compound 0.1265 µM) | relative viability (Alpelisib + Luminespib; first compound 0.4 µM) | relative viability (Alpelisib + Luminespib; first compound 1.265 µM) | relative viability (Alpelisib + Luminespib; first compound 4 µM) | relative viability (Vemurafenib + Trametinib; first compound 0.03162 µM) | relative viability (Vemurafenib + Trametinib; first compound 0.3162 µM) | relative viability (Vemurafenib + Trametinib; first compound 1 µM) | relative viability (Alpelisib + Pemetrexed; first compound 0.04 µM) | relative viability (Alpelisib + Pemetrexed; first compound 0.1265 µM) | relative viability (Alpelisib + Pemetrexed; first compound 0.4 µM) | relative viability (Alpelisib + Pemetrexed; first compound 1.265 µM) | relative viability (Alpelisib + Pemetrexed; first compound 4 µM) | relative viability (Vemurafenib + Trametinib; first compound 0.1 µM) |
| --- | --- | --- | --- | --- | --- | --- | --- | --- | --- | --- | --- | --- | --- | --- | --- | --- | --- | --- | --- |
| EKVX | 0.238 | 0.205 | 0.245 | 0.222 | 0.195 | 0.877 | 0.712 | 0.961 | 0.844 | 0.552 | 0.316 | 0.406 | 0.476 | 0.411 | 0.406 | 0.461 | 0.341 | 0.349 |  |
| EMC-BAC-2 | 0.513 | 0.543 | 0.466 | 0.385 | 0.263 | 1.24 | 1.03 | 1.16 | 0.932 | 0.707 | 0.806 |  | 1.08 | 0.448 | 0.461 | 0.447 | 0.441 | 0.353 | 0.907 |
| EPLC-272H | 0.309 | 0.258 | 0.3 | 0.276 | 0.211 | 0.74 | 0.253 | 0.155 | 0.19 | 0.164 | 0.282 | 0.338 | 0.331 | 0.394 | 0.363 | 0.355 | 0.276 | 0.238 | 0.323 |
| H3255 | 0.308 | 0.359 | 0.31 | 0.349 | 0.407 | 0.896 | 0.765 | 1.17 | 0.733 | 0.625 | 0.589 | 0.652 | 0.645 | 0.586 | 0.614 | 0.603 | 0.526 | 0.507 |  |
| HCC-78 | 0.624 | 0.626 | 0.593 | 0.558 | 0.432 |  |  |  |  |  | 0.783 | 1.06 | 0.838 | 0.854 | 0.941 | 0.951 | 0.854 | 0.887 | 0.609 |
| HCC-366 | 0.598 | 0.649 | 0.637 | 0.659 | 0.498 |  |  |  |  |  | 0.346 |  | 0.376 | 0.175 | 0.232 | 0.296 | 0.342 | 0.254 | 0.193 |
| NCI-H727 | 0.569 | 0.546 | 0.557 | 0.466 | 0.407 | 0.419 | 0.444 | 0.3 | 0.371 | 0.345 | 0.407 | 0.487 | 0.399 |  |  |  |  |  | 0.374 |
| NCI-H1563 | 0.674 | 0.647 | 0.618 | 0.681 | 0.589 | 0.488 | 0.479 | 0.404 | 0.503 | 0.462 |  |  |  | 0.857 | 0.579 | 0.662 | 0.622 | 0.567 |  |
| NCI-H1623 | 0.583 | 0.603 | 0.485 | 0.424 | 0.32 | 0.487 | 0.374 | 0.477 | 0.385 | 0.417 |  |  |  |  |  |  |  |  |  |
| NCI-H1648 |  |  |  |  |  |  |  |  |  |  |  | 0.569 | 0.58 | 0.661 | 0.743 | 0.894 | 0.559 | 0.482 | 0.326 |
